Results reported in patent publication US12076399B2, “Combination therapies for treating cancers” (Cothera Bioscience, Inc., priority 2017, dated 2024).

Experiments:
Assay in all cases: Ex vivo drug sensitivity test (EdU proliferation, EpCAM+ cells, high-content imaging) on conditionally reprogrammed patient-derived tumor cells
Assay type in all cases: cell-based, human
[1] = tested on: patient-derived epithelial tumor cells, colon; settings: EpCAM and Edu positive readout, AUC concentration
From the text: (§1) Surgical specimen from colorectal cancer patients, liver cancer patients, lung cancer patients, pancreatic cancer, gastric cancer patients and breast cancer patients were obtained from the Beijing Cancer Hospital and the Cancer Hospital of Chinese Academy of Medical Science after receiving patient consensus. Patient-derived xenograft tumor specimens were obtained from Nod/SCID mice inoculated with surgical tumor specimen from patients.
(§2) For ex vivo drug sensitivity assays, the tumor cells were isolated from the patient tissue sample or PDX xenograft tumor tissue. Briefly, the tumor tissues were cut into small pieces less than 1 mm in diameter using scissors. The tumor fragments were transferred into a sterile 100-ml triangle glass flask loaded with a magnet stir bar. A 10-15 ml digestion media containing 0.25 U/ml Liberase DH was added into the minced tumor tissues to start enzyme digestion. The enzyme mixture was incubated at 37° C. for 1-2 hours with moderate stirring. The digested tumor tissue was filtered through a 100-μm cell retainer. The filtrates were re-filtered through a 40-μm cell restrainer. The tumor cell clusters retained on the 40-μm cell restrainer was collected, wash twice with HBSS, then re-suspended in a defined growth media supplemented with several stem cell growth factors.
(§3) The tumor cell clusters retained on the 40-μm cell restrainer were collected, wash twice with HBSS, then re-suspended in a defined growth media supplemented with cell growth factors and small molecule inhibitors. The tumor cell clusters were recovered in a defined growth medium overnight. The defined growth medium was StemPro® hESC SFM (defined, serum- and feeder-free medium (SFM)) supplemented with: Nicotinamide, Wnt3A, Noggin (Bone Morphogenetic Protein (BMP) inhibitor), R-spondin-1 (Wnt/β-catenin signaling agonist), and Y27632 (Rho-associated, coiled-coil containing protein kinase (ROCK-1) inhibitor).
(§4) For conditional reprogramming, the recovered CTOSs were dissociated into single cells and seeded in a feeder cell/Rock inhibitor (Y27632) co-culture system at about 3000 cells per well in cell culture plate, and grow at 37 C for 3 days.
(§5) For ex vivo drug testing, the seeded tumor cells were exposed to seven EGFR inhibitors, three MEK 1/2 inhibitors, and three CDK 4/6 inhibitors alone, or a combination of EGFR inhibitor and MEK 1/2 inhibitor, a combination of EGFR inhibitor and CDK 4/6 inhibitor, a combination of MEK 1/2 inhibitor and CDK 4/6 inhibitor, and a triple combination of EGFR inhibitor, MEK 1/2 inhibitor, and a CDK 4/6 inhibitor for 72 hours. The treated tumor cells were re-exposed to the same drug or drug combination with a fresh media change for another 72 hours. All drugs were prepared in DMSO and the final concentration of DMSO in media was 0.1%. The tested concentration of the drug and drug combinations were at relevant AUC concentration (see Table E1).
(§6) Following exposure with drug, the epithelial tumor cells were labeled with 5-ethynyl-2′-deoxyuridine (Edu) to assess the tumor cell proliferation rates. The labeling lasted 24 hours in the presence of drug exposure. In the control group, epithelial tumor cells received no drug exposure with media change, but were similarly labeled with Edu. The labeled tumor cell were fixed and stained with Hoechst 33342 in blocking buffer containing 0.5% Triton X-100 and 3% BSA overnight at 4° C. The tumor cells were incubated with EpCAM antibody (1:4000) for 2 hours at room temperature and rinsed with PBST. Subsequently, the tumor cells were incubated with Alexa FluorR 647 conjugated goat-anti-mouse secondary antibody for 30 minutes at room temperature and rinsed with PBST.
(§7) The incorporated Edu was detected by Click-iT reaction where fixed cells were incubated with a reaction mixture containing 1× Click-iT Edu reaction buffer, CuSO4, and azide-conjugated Alexa Fluor dye in the dark. The stained cells were washed with PBS two times before image acquisition and analysis. […]

[2] = tested on: patient-derived epithelial tumor cells, gastric; settings: EpCAM and Edu positive readout, AUC concentration
From the text: as §1, §2, §3, §4, §5, §6, §7

[3] = tested on: patient-derived epithelial tumor cells, pancrea; settings: patient ZKB-011, pancrea; EpCAM and Edu positive readout; AUC concentration
From the text: as §1, §2, §3, §4, §5, §6, §7

Structure (SMILES) | Inhibition percentage ([1]; patient NYL-040, colon) [%] | MI (Maximum Inhibition Index) ([1]; patient NYL-040, colon) | Inhibition percentage ([1]; patient NYL-053, colon) [%] | MI (Maximum Inhibition Index) ([1]; patient NYL-053, colon) | Inhibition percentage ([1]; patient NYL-109, colon) [%] | MI (Maximum Inhibition Index) ([1]; patient NYL-109, colon) | Inhibition percentage ([1]; patient NYL-113, colon) [%] | MI (Maximum Inhibition Index) ([1]; patient NYL-113, colon) | Inhibition percentage ([1]; patient NYL-132, colon) [%] | MI (Maximum Inhibition Index) ([1]; patient NYL-132, colon) | Inhibition percentage ([1]; patient NYL-149, colon) [%] | MI (Maximum Inhibition Index) ([1]; patient NYL-149, colon) | Inhibition percentage ([1]; patient NYL-161, colon) [%] | MI (Maximum Inhibition Index) ([1]; patient NYL-161, colon) | Inhibition percentage ([1]; patient NYL-170, colon) [%] | MI (Maximum Inhibition Index) ([1]; patient NYL-170, colon) | Inhibition percentage ([1]; patient NYL-HZ-002, colon) [%] | MI (Maximum Inhibition Index) ([1]; patient NYL-HZ-002, colon) | Inhibition percentage ([1]; patient ZKB-007, colon) [%] | MI (Maximum Inhibition Index) ([1]; patient ZKB-007, colon) | also measured
CC(C)(C)c1nc(-c2cccc(NS(=O)(=O)c3c(F)cccc3F)c2F)c(-c2ccnc(N)n2)s1 [D, Dabrafenib] | 7.18 | 1.08 | 9.11 | 1.10 | 34.25 | 1.52 | −3.84 | 0.96 | 29.59 | 1.42 | 75.06 | 4.01 | −6.33 | 0.94 | 52.58 | 2.11 | 0.00 | 0.83 | 0.00 | 0.91 | Inhibition percentage ([1]; patient ZKB-070, colon): 15.53%; MI (Maximum Inhibition Index) ([1]; patient ZKB-070, colon): 1.18; Inhibition percentage ([1]; patient ZKB-171, colon): 15.07%; MI (Maximum Inhibition Index) ([1]; patient ZKB-171, colon): 1.18; Inhibition percentage ([2]; patient NYP-006, gastric): 0.00%; MI (Maximum Inhibition Index) ([2]; patient NYP-006, gastric): 0.47; Inhibition percentage ([2]; patient ZKB-165, gastric): 45.31%; MI (Maximum Inhibition Index) ([2]; patient ZKB-165, gastric): 1.83; Inhibition percentage [3]: 0.00%; MI (Maximum Inhibition Index) [3]: 1.00
CC(=O)c1c(C)c2cnc(Nc3ccc(N4CCNCC4)cn3)nc2n(C2CCCC2)c1=O [P, Palbociclib] | 85.02 | 6.68 | 63.04 | 2.71 | 40.42 | 1.68 | 44.25 | 1.79 | 48.53 | 1.94 | 57.40 | 2.35 | 26.16 | 1.35 | 67.64 | 3.09 | 52.48 | 2.10 | 66.72 | 3.00 | Inhibition percentage ([1]; patient CKY-041, colon): 9.05%; MI (Maximum Inhibition Index) ([1]; patient CKY-041, colon): 1.10; Inhibition percentage ([1]; patient ZKB-070, colon): 77.00%; MI (Maximum Inhibition Index) ([1]; patient ZKB-070, colon): 4.35; Inhibition percentage ([1]; patient ZKB-171, colon): 30.13%; MI (Maximum Inhibition Index) ([1]; patient ZKB-171, colon): 1.43; Inhibition percentage ([2]; patient NYP-006, gastric): 65.36%; MI (Maximum Inhibition Index) ([2]; patient NYP-006, gastric): 2.89; Inhibition percentage ([2]; patient ZKB-165, gastric): 86.45%; MI (Maximum Inhibition Index) ([2]; patient ZKB-165, gastric): 7.38; Inhibition percentage [3]: 85.40%; MI (Maximum Inhibition Index) [3]: 6.85
CC(=O)Nc1cccc(-n2c(=O)n(C3CC3)c(=O)c3c(Nc4ccc(I)cc4F)n(C)c(=O)c(C)c32)c1 [T, Trametinib] | 0.00 | 0.85 | 49.02 | 1.96 | 86.79 | 7.57 | 46.31 | 1.86 | 29.60 | 1.42 | 75.78 | 4.13 | 0.59 | 1.01 | 0.00 | 0.61 | 51.53 | 2.06 | 0.00 | 0.76 | Inhibition percentage ([1]; patient CKY-041, colon): 5.05%; MI (Maximum Inhibition Index) ([1]; patient CKY-041, colon): 1.05; Inhibition percentage ([1]; patient ZKB-070, colon): −34.50%; MI (Maximum Inhibition Index) ([1]; patient ZKB-070, colon): 0.74; Inhibition percentage ([1]; patient ZKB-171, colon): 46.02%; MI (Maximum Inhibition Index) ([1]; patient ZKB-171, colon): 1.85; Inhibition percentage ([2]; patient NYP-006, gastric): 0.00%; MI (Maximum Inhibition Index) ([2]; patient NYP-006, gastric): 0.55; Inhibition percentage ([2]; patient ZKB-165, gastric): 0.00%; MI (Maximum Inhibition Index) ([2]; patient ZKB-165, gastric): 0.60; Inhibition percentage [3]: 7.36%; MI (Maximum Inhibition Index) [3]: 1.08
